Key:
[1] = system: moderate to severe pain following dental surgery; assay: Dose ranging clinical study of morphine 60 mg with NTX 0.1, 0.01 or 0.001 mg, and NTX alone; assay type: in vivo, human; conditions: NTX 0.01 mg alone, among treatment groups
Method: In a dose ranging study, doses of morphine sulfate (60 mg) in combination with naltrexone hydrochloride (0.1 mg, 0.01 mg, or 0.001 mg) were administered for moderate to severe pain in patients following dental surgery. This study was performed to investigate the analgesic efficacy (onset, peak, duration, and total effect) of morphine alone, naltrexone alone, three different doses of naltrexone in combination with morphine and placebo.
The 300 subject study was designed with six treatment groups: A) placebo (50 pts); B) morphine 60 mg (50 pts); C) naltrexone 0.01 mg (50 pts); D) morphine 60 mg and naltrexone 0.1 mg (50 pts); E) morphine 60 mg and naltrexone 0.01 mg (50 pts); F) morphine 60 mg and naltrexone 0.001 mg (50 pts). In this study, in the treatment of moderate to severe pain following extraction of 3 or 4 full or partial bony impacted third molars, a single oral dose of one of the treatments was administered when the patient was suffering moderate to severe postoperative pain. The observation period for efficacy was 8 hours post treatment, and for safety was 24 hours post treatment.
The efficacy and safety evaluations included pain intensity, pain relief, global pain evaluation, evaluation of time to meaningful pain relief (stopwatch), visual analog scale (VAS), and adverse event assessments. For the data analysis, certain pain parameters were computed as generally described above.

[2] = system: excitatory opioid receptors; conditions: mice, antagonist on the order of ng/kg with morphine or similar opioid agonists; cited from earlier work
[3] = Binding of drug in solution to pharmaceutical excipients
postsurgical patients = conditions: PCA/IV morphine with low dose IV antagonist; cited from earlier work
[4] = system: moderate to severe pain following dental surgery; assay: Dose ranging clinical study of morphine 30, 60, 90 mg alone or with NTX 0.1 mg; assay type: in vivo, human; conditions: 30 mg, 60 mg and 90 mg MS alone compared with each other
Method: In this dose ranging study, doses of morphine sulfate (30 mg, 60 mg, and 90 mg) in combination with naltrexone hydrochloride (0.1 mg) were administered for moderate to severe pain in male patients following dental surgery. This study was performed to investigate the efficacy of combinations of different doses of morphine with naltrexone 0.1 mg, relative to placebo and relative to morphine alone, to evaluate the dose-response effects of morphine when administered alone and when coadministered with naltrexone 0.1 mg, and to examine the consistency of effect of naltrexone 0.1 mg across different doses of morphine, when coadministered with morphine.
The 210 subject study was designed with seven treatment groups: A) placebo (30 pts); B) morphine 30 mg (30 pts); C) morphine 60 mg (30 pts); D) morphine 90 mg (30 pts); E) morphine 30 mg and naltrexone 0.1 mg (30 pts); F) morphine 60 mg and naltrexone 0.1 mg (30 pts); G) morphine 90 mg and naltrexone 0.1 mg (30 pts). In this study, in the treatment of moderate to severe pain following extraction of 3 or 4 full or partial bony impacted third molars, a single oral dose of one of the treatments was administered when the patient was suffering moderate to severe postoperative pain. The observation period for efficacy was 8 hours post treatment and for safety was 24 hours post treatment. […]

[5] = excipients of Example 10, aqueous environment
[6] = excipients of Example 12, aqueous environment

Q: For Cl.O=C1CC[C@@]2(O)[C@H]3Cc4ccc(O)c5c4[C@@]2(CCN3CC2CC2)[C@H]1O5 [naltrexone hydrochloride, 17-cyclopropylmethyl-4,5α-epoxy-3,14-dihydroxymorphinan-6-one hydrochloride], which global evaluation scores [1] is on record?
A: highest number of subjects who had “poor” global evaluation scores

Q: What about the “mean 4 hour Sum of Pain Intensity Difference (SPID) scores” value [1] of the same compound?
A: lowest

Q: What about the “mean Total Pain Relief scores” value [1] of the same compound?
A: lowest

Q: What about the “effect on analgesic potency of opioid agonists” value [2] of the same compound?
A: markedly enhancing the analgesic potency of opioid agonists

Q: What about the “fraction of drug bound by croscarmellose sodium” value ([3]; drug in solution mixed with croscarmellose sodium in suspension) of the same compound?
A: more than 90%

Q: What about the “binding by the excipients used” value [3, 5] of the same compound?
A: not to bind

Q: What about the “binding by the excipients used” value [3, 6] of the same compound?
A: not to bind

Q: Which “effect on potency of morphine” value (postsurgical patients) does the source give for C=CCN1CC[C@]23c4c5ccc(O)c4O[C@H]2C(=O)CC[C@@]3(O)[C@H]1C5 [naloxone, 4,5-epoxy-3,14-dihydroxy-17-(2-prophenyl)morphinan-6-one] here?
A: markedly enhanced potency of morphine

Q: Which “effect on potency of morphine” value (postsurgical patients) does the source give for C=C1CC[C@@]2(O)[C@H]3Cc4ccc(O)c5c4[C@@]2(CCN3CC2CC2)[C@H]1O5 [nalmefene, 6-methylene-6-desoxy-N-cyclopropyl-methyl-14-hydroxydihydroxy-dihydronormorphine] here?
A: markedly enhanced potency of morphine

Q: What does the source list for CN1CC[C@]23c4c5ccc(O)c4O[C@H]2[C@@H](O)C=C[C@H]3[C@H]1C5.O=S(=O)(O)O [MS, morphine sulfate]?
A: mean SPID scores [4]: comparable; mean Total Pain Relief scores [4]: comparable; binding to croscarmellose sodium ([3]; croscarmellose sodium): also bound to this excipient; binding by the excipients used [3, 5]: not to bind; binding by the excipients used [3, 6]: not to bind

Reference: US20030191147A1, “Opioid antagonist compositions and dosage forms” (priority 2002, published 2003)
